The target in assay [1] is Serine/threonine-protein kinase B-raf (Homo sapiens, UniProt P15056, V600E). Briefly: Inhibition of full length B-Raf V600E mutant.
Assay [2] can be described thus: Inhibition of basal ERK phosphorylation in human MALME-3M cells. It counts as cell-based.

Serine/threonine-protein kinase B-raf, sequence (P15056 2-766 V600E limits assumed): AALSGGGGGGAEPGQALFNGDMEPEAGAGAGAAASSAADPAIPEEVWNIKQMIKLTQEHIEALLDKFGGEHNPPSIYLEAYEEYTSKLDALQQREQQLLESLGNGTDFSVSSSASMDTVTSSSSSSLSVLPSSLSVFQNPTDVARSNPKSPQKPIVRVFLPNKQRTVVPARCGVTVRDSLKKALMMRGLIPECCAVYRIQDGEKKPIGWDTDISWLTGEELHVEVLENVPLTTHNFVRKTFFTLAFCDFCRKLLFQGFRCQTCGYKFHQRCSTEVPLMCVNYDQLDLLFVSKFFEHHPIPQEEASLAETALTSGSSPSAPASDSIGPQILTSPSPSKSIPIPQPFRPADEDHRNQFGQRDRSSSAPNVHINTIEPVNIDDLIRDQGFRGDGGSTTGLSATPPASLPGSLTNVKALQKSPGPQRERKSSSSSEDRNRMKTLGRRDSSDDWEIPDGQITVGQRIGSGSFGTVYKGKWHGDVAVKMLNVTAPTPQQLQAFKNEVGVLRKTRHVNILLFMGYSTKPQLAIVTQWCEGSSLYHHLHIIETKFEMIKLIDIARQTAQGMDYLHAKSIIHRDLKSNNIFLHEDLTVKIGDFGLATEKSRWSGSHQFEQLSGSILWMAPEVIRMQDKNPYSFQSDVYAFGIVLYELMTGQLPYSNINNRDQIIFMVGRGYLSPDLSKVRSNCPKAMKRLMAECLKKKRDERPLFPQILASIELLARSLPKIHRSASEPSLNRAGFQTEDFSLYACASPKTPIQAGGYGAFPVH

What is called IC50 is the midpoint of a concentration-inhibition curve. With `CCCS(=O)(=O)Nc1ccc(Cl)c(C(=O)Nc2cnc3[nH]ccc3c2)c1F`, the half-maximal inhibitory concentration (IC50) was found to be 0.017 µM in assay [1] and 0.19 µM in assay [2].

As to `O=C(Nc1cnc2[nH]ccc2c1)c1c(F)ccc(NS(=O)(=O)CCCF)c1F`, the values for the concentration for half-maximal inhibition (IC50) in assay [1] and in assay [2] were 0.019 µM and 0.075 µM, respectively.

For the compound `CCCS(=O)(=O)Nc1cc(F)c(F)c(C(=O)Nc2cnc3[nH]nc(OC)c3c2)c1F`, the IC50 in assay [1] was 0.0023 µM; in assay [2], 0.1 µM.

Regarding `CCNS(=O)(=O)Nc1ccc(F)c(C(=O)Nc2cnc3[nH]nc(OC)c3c2)c1F`, the values for the IC50 in assay [1] and in assay [2] were 0.018 µM and 0.18 µM, respectively.

Take `O=C(Nc1cnc2[nH]ccc2c1)c1c(F)ccc(NS(=O)(=O)C2CC2)c1F`: the values for the concentration for half-maximal inhibition (IC50) in assay [1] and in assay [2] were 0.099 µM and 0.71 µM, respectively.

Regarding `COc1n[nH]c2ncc(NC(=O)c3c(F)ccc(NS(=O)(=O)CC4CC4)c3F)cc12`, the IC50 in assay [1] was determined as 0.017 µM; in assay [2], 0.031 µM.

As for `CCCS(=O)(=O)Nc1ccc(F)c(C(=O)Nc2cnc3[nH]nc(Br)c3c2)c1F`, the IC50 in assay [2] turned out to be 0.044 µM.

In the case of `COc1n[nH]c2ncc(NC(=O)c3c(F)ccc(NS(=O)(=O)CCCF)c3F)cc12`, the values for the IC50 in assay [1] and in assay [2] were 0.0013 µM and 0.013 µM, respectively.

As to `COc1n[nH]c2ncc(NC(=O)c3c(F)ccc(NS(=O)(=O)NCC(F)F)c3F)cc12`, the IC50 was 0.013 µM in assay [1] and 0.5 µM in assay [2].

Regarding `CN(C)S(=O)(=O)Nc1ccc(F)c(C(=O)Nc2cnc3[nH]ccc3c2)c1F`, the 50% inhibitory concentration (IC50) is 0.2 µM in assay [1] and 0.26 µM in assay [2].

Turning to `CCN(C)S(=O)(=O)Nc1ccc(F)c(C(=O)Nc2cnc3[nH]nc(OC)c3c2)c1F`, the IC50 in assay [1] worked out at 0.029 µM; in assay [2], 0.028 µM.

Consider `CCCS(=O)(=O)Nc1ccc(F)c(C(=O)Nc2cnc3[nH]nc(C)c3c2)c1F`, for which, in assay [2], the half-inhibitory concentration (IC50) was 0.086 µM.

As to `CCCS(=O)(=O)Nc1ccc(Cl)c(C(=O)Nc2cnc3[nH]ccc3c2)c1Cl`, the half-inhibitory concentration (IC50) in assay [1] is 0.0083 µM; in assay [2], 0.206 µM.

As to `CC(C)CS(=O)(=O)Nc1ccc(F)c(C(=O)Nc2cnc3[nH]ccc3c2)c1F`, the figures for the IC50 in assay [1] and in assay [2] were 0.14 µM and 0.2 µM, respectively.

`CCCS(=O)(=O)Nc1ccc(F)c(C(=O)Nc2cnc3[nH]ccc3c2)c1` showed a concentration for half-maximal inhibition (IC50) in assay [1] of 0.21 µM.

Consider `CCCS(=O)(=O)Nc1ccc(Cl)c(C(=O)Nc2cnc3[nH]nc(OC)c3c2)c1Cl`, for which the values for the half-inhibitory concentration (IC50) in assay [1] and in assay [2] were 0.0014 µM and 0.04 µM, respectively.

Turning to `CCS(=O)(=O)Nc1ccc(F)c(C(=O)Nc2cnc3[nH]nc(OC)c3c2)c1F`, the IC50 was found to be 0.025 µM in assay [1] and 0.062 µM in assay [2].

As for `CCCS(=O)(=O)Nc1ccc(C)c(C(=O)Nc2cnc3[nH]ccc3c2)c1F`, the IC50 in assay [1] worked out at 0.17 µM; in assay [2], 1.4 µM.

Turning to `COc1n[nH]c2ncc(NC(=O)c3c(F)ccc(NS(=O)(=O)c4cn(C)cn4)c3F)cc12`, the IC50 in assay [2] is > 10 µM.

In turn, `CCCS(=O)(=O)Nc1ccc(F)c(C(=O)Nc2cnc3[nH]nc(OC)c3c2)c1C(F)(F)F` showed an IC50 in assay [1] of 0.53 µM.

Consider `CCCS(=O)(=O)Nc1ccc(Cl)c(C(=O)Nc2cnc3[nH]nc(OC)c3c2)c1F`, for which the IC50 in assay [2] came to 0.02 µM.

As to `CCCS(=O)(=O)Nc1ccc(F)c(C(=O)Nc2cnc3[nH]ncc3c2)c1F`, the half-maximal inhibitory concentration (IC50) in assay [2] stood at 0.062 µM.

Turning to `CCCS(=O)(=O)Nc1ccc(F)c(C(=O)Nc2cnc3[nH]nc(C(F)(F)F)c3c2)c1F`, the figures for the half-maximal inhibitory concentration (IC50) in assay [1] and in assay [2] were 0.0058 µM and 0.28 µM, respectively.

With `COc1n[nH]c2ncc(NC(=O)c3c(F)ccc(NS(=O)(=O)c4ccccc4F)c3F)cc12`, the values for the IC50 in assay [1] and in assay [2] were 0.0018 µM and 0.0091 µM, respectively.

As to `COc1n[nH]c2ncc(NC(=O)c3c(F)ccc(NS(=O)(=O)c4ccccc4)c3F)cc12`, the concentration for half-maximal inhibition (IC50) in assay [2] was 0.017 µM.

In the case of `CCCS(=O)(=O)Nc1ccc(OC)c(C(=O)Nc2cnc3[nH]nc(OC)c3c2)c1F`, the IC50 in assay [1] was determined as 2.6 µM. That is a single-digit micromolar value.

In assay [2], `CCCS(=O)(=O)Nc1ccc(F)c(C(=O)Nc2cnc3[nH]cc(Br)c3c2)c1F` had a 50% inhibitory concentration (IC50) of 0.039 µM.

The compound `CCCS(=O)(=O)Nc1ccc(F)c(C(=O)Nc2cnc3[nH]ccc3c2)c1F` showed a concentration for half-maximal inhibition (IC50) in assay [2] of 0.094 µM.

In assay [1], `CCCS(=O)(=O)Nc1ccc(F)c(C(=O)Nc2cnc3[nH]ccc3c2)c1C` gave a half-inhibitory concentration (IC50) of 0.68 µM.

Source of the values: ChEMBL document CHEMBL1821716, “Pyrazolopyridine inhibitors of B-RafV600E. Part 2: structure-activity relationships” (Bioorg Med Chem Lett, 2011).
